Experimental data: the NIST ThermoML archive (doi:10.1021/je800110r)

Details: Liquid, Vibrating tube method

CCCCCCCCCC [decane]
Details	mass density [kg/m3]
333.16 K, 13554 kPa	711.7
333.16 K, 13566 kPa	711.8
333.16 K, 13581 kPa	711.8
333.16 K, 13900 kPa	711.9
333.16 K, 14258 kPa	712.3
333.16 K, 14275 kPa	712.3
333.16 K, 14293 kPa	712.4
333.16 K, 14310 kPa	712.3
333.16 K, 14334 kPa	712.3
333.16 K, 14348 kPa	712.4
333.16 K, 14369 kPa	712.4
333.16 K, 14389 kPa	712.4
333.16 K, 14403 kPa	712.4
333.16 K, 14421 kPa	712.5
333.16 K, 14436 kPa	712.4
333.16 K, 14457 kPa	712.6
333.16 K, 14470 kPa	712.5
333.16 K, 14484 kPa	712.6
333.16 K, 14501 kPa	712.6
333.16 K, 14514 kPa	712.5
333.16 K, 14528 kPa	712.6
333.16 K, 14543 kPa	712.4
333.16 K, 14559 kPa	712.6
333.16 K, 14581 kPa	712.6
333.16 K, 14601 kPa	712.6
333.16 K, 14623 kPa	712.6
333.16 K, 14640 kPa	712.6
333.16 K, 14660 kPa	712.7
333.16 K, 14678 kPa	712.6
333.16 K, 14696 kPa	712.7
333.16 K, 14711 kPa	712.7
333.16 K, 14728 kPa	712.8
333.16 K, 14750 kPa	712.8
333.16 K, 14770 kPa	712.8
333.16 K, 14785 kPa	712.7
333.16 K, 14808 kPa	712.8
333.16 K, 14828 kPa	712.8
333.16 K, 14846 kPa	712.8
333.16 K, 14864 kPa	712.9
333.16 K, 14881 kPa	712.7
333.16 K, 14984 kPa	712.9
333.16 K, 15187 kPa	713
333.16 K, 15232 kPa	713.1
333.16 K, 15248 kPa	713.1
333.16 K, 15291 kPa	713.1
333.16 K, 15313 kPa	713.2
333.16 K, 15331 kPa	713.3
333.16 K, 15356 kPa	713.2
333.16 K, 15370 kPa	713.2
333.16 K, 15519 kPa	713.4
333.16 K, 15581 kPa	713.3
333.16 K, 18702 kPa	716
333.16 K, 18825 kPa	715.9
333.16 K, 21785 kPa	718.5
333.16 K, 21820 kPa	718.6
333.16 K, 25349 kPa	721.2
333.16 K, 25383 kPa	721.2
333.16 K, 25434 kPa	721.3
333.16 K, 25480 kPa	721.3
333.16 K, 25520 kPa	721.3
333.16 K, 25560 kPa	721.3
333.16 K, 25612 kPa	721.4
333.16 K, 25653 kPa	721.5
333.16 K, 26114 kPa	721.7
333.16 K, 26176 kPa	721.8
333.16 K, 26222 kPa	721.8
333.16 K, 26260 kPa	721.9
333.16 K, 26304 kPa	721.8
333.16 K, 26342 kPa	721.9
333.16 K, 27466 kPa	722.8
333.16 K, 27509 kPa	722.8
333.16 K, 27558 kPa	722.8
333.16 K, 27603 kPa	722.9
333.16 K, 27660 kPa	722.9
333.16 K, 27703 kPa	722.9
333.16 K, 27755 kPa	722.9
333.16 K, 27812 kPa	723
333.16 K, 27849 kPa	723.1
333.16 K, 27894 kPa	723.1
333.16 K, 27945 kPa	723
333.16 K, 27985 kPa	723.2
333.16 K, 28031 kPa	723.2
333.16 K, 28077 kPa	723.1
333.16 K, 28117 kPa	723.2
333.16 K, 28185 kPa	723.3
333.16 K, 28218 kPa	723.2
333.16 K, 28262 kPa	723.3
333.16 K, 28293 kPa	723.4
333.16 K, 28324 kPa	723.5
333.16 K, 28354 kPa	723.3
333.16 K, 28395 kPa	723.5
333.16 K, 28436 kPa	723.4
333.16 K, 28472 kPa	723.5
333.16 K, 28508 kPa	723.5
333.16 K, 28555 kPa	723.6
333.16 K, 28586 kPa	723.5
333.16 K, 29016 kPa	723.9
333.16 K, 29059 kPa	724
333.16 K, 29107 kPa	724
333.16 K, 29157 kPa	724.1
333.16 K, 29189 kPa	724
333.16 K, 29233 kPa	724
333.16 K, 29260 kPa	724.2
333.16 K, 29300 kPa	724.2
333.16 K, 29339 kPa	724.2
333.16 K, 29378 kPa	724.2
333.16 K, 29411 kPa	724.2
333.16 K, 29456 kPa	724.2
333.16 K, 29495 kPa	724.1
333.16 K, 29541 kPa	724.3
333.16 K, 29575 kPa	724.4
333.16 K, 29625 kPa	724.4
333.16 K, 29666 kPa	724.3
333.16 K, 29700 kPa	724.3
333.16 K, 29730 kPa	724.6
333.16 K, 29759 kPa	724.5
333.16 K, 29794 kPa	724.6
333.17 K, 25689 kPa	721.5
333.17 K, 25730 kPa	721.5
333.17 K, 25766 kPa	721.6
333.17 K, 25801 kPa	721.5
333.17 K, 25849 kPa	721.7
333.17 K, 25908 kPa	721.7
333.17 K, 25950 kPa	721.7
333.17 K, 25992 kPa	721.7
333.17 K, 26034 kPa	721.7
333.17 K, 26071 kPa	721.8
333.17 K, 28623 kPa	723.6
333.17 K, 28670 kPa	723.7
333.17 K, 28702 kPa	723.6
333.17 K, 28729 kPa	723.8
333.17 K, 28761 kPa	723.8
333.17 K, 28807 kPa	723.7
333.17 K, 28849 kPa	723.8
333.17 K, 28887 kPa	723.7
333.17 K, 28930 kPa	724
333.17 K, 28974 kPa	723.9
